The target of the test is T1, polycystin-2 (Homo sapiens, UniProt Q13563).
T1 construct: expressed in transfected cells
T1 sequence (Q13563 1-968): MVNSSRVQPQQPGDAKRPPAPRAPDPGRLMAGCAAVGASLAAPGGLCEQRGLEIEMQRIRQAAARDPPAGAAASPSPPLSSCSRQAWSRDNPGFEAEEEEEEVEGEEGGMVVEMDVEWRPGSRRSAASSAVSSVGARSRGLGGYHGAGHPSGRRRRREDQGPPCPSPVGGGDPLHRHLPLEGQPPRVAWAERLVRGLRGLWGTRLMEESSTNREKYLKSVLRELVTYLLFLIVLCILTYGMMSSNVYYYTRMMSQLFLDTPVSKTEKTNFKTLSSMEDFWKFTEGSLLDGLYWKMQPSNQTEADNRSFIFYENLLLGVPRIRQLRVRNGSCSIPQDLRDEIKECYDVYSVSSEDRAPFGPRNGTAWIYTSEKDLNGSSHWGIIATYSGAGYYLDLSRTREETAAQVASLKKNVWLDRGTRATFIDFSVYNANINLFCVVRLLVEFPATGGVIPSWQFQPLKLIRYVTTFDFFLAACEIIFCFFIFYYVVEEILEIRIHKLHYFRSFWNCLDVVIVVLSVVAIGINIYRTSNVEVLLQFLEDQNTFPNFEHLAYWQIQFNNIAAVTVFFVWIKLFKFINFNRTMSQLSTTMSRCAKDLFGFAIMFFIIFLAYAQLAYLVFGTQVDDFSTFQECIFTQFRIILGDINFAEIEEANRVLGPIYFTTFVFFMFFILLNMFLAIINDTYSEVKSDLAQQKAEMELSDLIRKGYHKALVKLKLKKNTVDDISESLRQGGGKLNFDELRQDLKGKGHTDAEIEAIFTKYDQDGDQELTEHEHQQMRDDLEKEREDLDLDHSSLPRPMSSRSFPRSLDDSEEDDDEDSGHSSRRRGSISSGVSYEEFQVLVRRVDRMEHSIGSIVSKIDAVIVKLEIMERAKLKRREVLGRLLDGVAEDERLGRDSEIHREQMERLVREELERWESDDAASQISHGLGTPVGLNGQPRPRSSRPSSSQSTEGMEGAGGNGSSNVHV
Description: Inside-out cilia patch of HEK cells, voltage dependent channel opening at low and high intraciliary Ca2+. The format is cell-based. As to conditions: from low (100 nM) to high (100 μM) Ca2+, WT channels. The text has this:
To test whether calcium occupancy of the EF hand is responsible for CDM and CDD of human polycystin-2, we generated double alanine mutations at the −X ([…]) and −Z vertices (E774A) which abolished Ca^2+ affinity for the CTD fragment (FIG. 17B). We then expressed the −X-Z double mutation in PKD2-GFP in a PKD2^null HEK cell line, so that exogenous channels could be assayed without the contribution of endogenous PKD2 alleles, as previously described (Vien et al., 2020). The stably expressed human WT and −X-Z channels trafficked to the primary cilia, and glass electrodes with submicron apertures were fabricated to form high resistance electrical seals with the GFP-illuminated cilia membranes (FIG. 18A). […] These experiments were performed with only one channel present in the membrane, so that stochastic effects on single channel states could be determined. […]
Electrophysiology. The electrophysiologist was blinded by a third party in the laboratory, where test groups were assigned a letter to conceal the genetic identity of the cells being evaluated. […] Ciliary ion currents were recorded using borosilicate glass electrodes polished to resistances of 14-23 MΩ using the cilium patch method previously described (Vien et al., 2020). Single channel currents measured in the inside-out configuration were recorded in symmetrical sodium concentrations. […]

`[Ca+2]` [Ca^2+, calcium]: the “Shift in the voltage-dependence of half maximal open probability (V1/2)” value is on record as −47 mV.

The values are drawn from patent US20210369677A1, “SMALL MOLECULE ACTIVATORS OF POLYCYSTIN-2 (PKD2) AND USES THEREOF” (Northwestern University, priority 2020, published 2021).
